Results: patent US20230045421A1 (priority 2018, published 2023)

Test system: HBV rcDNA
Experiment: HepDE19 assay with bDNA quantitation of HBV rcDNA
Type: cell-based, hepatitis B virus
Conditions: HepDE19 assay, inhibition of formation of rcDNA; read-out: DE-19bDNA EC50
Outline: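 Compounds, top concentration 25 μM in 8-point duplicate series, were applied to Tet-free HepDE19 cultures for 7 days. Branched-DNA quantitation of HBV rcDNA against untreated wells gave EC50 and EC90 by 4-parameter fit. Viability (CC50) came from ATP luminescence on parallel plates incubated 4 days.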

| SMILES | EC50 |
| --- | --- |
| CC(c1cnc(N)c2ccccc12)N(C)C(=O)Nc1ccc(F)c(Cl)c1 (single isomer, unassigned) [Compound 239, 1-(1-(1-Aminoisoquinolin-4-yl)ethyl)-3-(3-chloro-4-fluorophenyl)-1-methylurea] | 210 nM |
| CCNc1ncc(C(C)N(C)C(=O)Nc2ccc(F)c(Cl)c2)c2ccccc12 (single isomer, unassigned) [Compound 240, 3-(3-Chloro-4-fluorophenyl)-1-(1-(1-(ethylamino)isoquinolin-4-yl)ethyl)-1-methylurea] | 11500 nM |
| CCNc1ncc(C(C)N(C)C(=O)Nc2ccc(F)c(Cl)c2)c2ccccc12 (single isomer, unassigned) [Compound 241, 3-(3-Chloro-4-fluorophenyl)-1-(1-(1-(ethylamino)isoquinolin-4-yl)ethyl)-1-methylurea] | 110 nM |
| CC(c1cnc(NCCO)c2ccccc12)N(C)C(=O)Nc1ccc(F)c(Cl)c1 (single isomer, unassigned) [Compound 242, 3-(3-Chloro-4-fluorophenyl)-1-(1-(1-((2-hydroxyethyl)amino)isoquinolin-4-yl)ethyl)-1-methylurea] | 170 nM |
| CC(c1cnc(NCCO)c2ccccc12)N(C)C(=O)Nc1ccc(F)c(Cl)c1 (single isomer, unassigned) [Compound 243, 3-(3-Chloro-4-fluorophenyl)-1-(1-(1-((2-hydroxyethyl)amino)isoquinolin-4-yl)ethyl)-1-methylurea] | 9900 nM |
| CC(c1cnc(NCc2ncn(C)n2)c2ccccc12)N(C)C(=O)Nc1ccc(F)c(Cl)c1 (single isomer, unassigned) [Compound 245, 3-(3-Chloro-4-fluorophenyl)-1-methyl-1-(1-(1-(((1-methyl-1H-1,2,4-triazol-3-yl)methyl)amino)isoquinolin-4-yl)ethyl)urea] | 13000 nM |
| CC(c1cnc(NCc2ncn(C)n2)c2ccccc12)N(C)C(=O)Nc1ccc(F)c(Cl)c1 (single isomer, unassigned) [Compound 246, 3-(3-Chloro-4-fluorophenyl)-1-methyl-1-(1-(1-(((1-methyl-1H-1,2,4-triazol-3-yl)methyl)amino)isoquinolin-4-yl)ethyl)urea] | 140 nM |
| CC(c1cnc(NCc2nc[nH]n2)c2ccccc12)N(C)C(=O)Nc1ccc(F)c(Cl)c1 (single isomer, unassigned) [Compound 247, 1-(1-(1-(((1H-1,2,4-Triazol-3-yl)methyl)amino)isoquinolin-4-yl)ethyl)-3-(3-chloro-4-fluorophenyl)-1-methylurea] | 390 nM |
| CC(c1cnc(NCc2nc[nH]n2)c2ccccc12)N(C)C(=O)Nc1ccc(F)c(Cl)c1 (single isomer, unassigned) [Compound 248, 1-(1-(1-(((1H-1,2,4-Triazol-3-yl)methyl)amino)isoquinolin-4-yl)ethyl)-3-(3-chloro-4-fluorophenyl)-1-methylurea] | 9100 nM |
| CC(c1cnc(NCCN)c2ccccc12)N(C)C(=O)Nc1ccc(F)c(Cl)c1 (single isomer, unassigned) [Compound 249, 1-(1-(1-((2-Aminoethyl)amino)isoquinolin-4-yl)ethyl)-3-(3-chloro-4-fluorophenyl)-1-methylurea] | 14000 nM |
| CC(c1cnc(NCCN)c2ccccc12)N(C)C(=O)Nc1ccc(F)c(Cl)c1 (single isomer, unassigned) [Compound 250, 1-(1-(1-((2-Aminoethyl)amino)isoquinolin-4-yl)ethyl)-3-(3-chloro-4-fluorophenyl)-1-methylurea] | 1500 nM |
| CC(c1c[nH]c(=O)c2cnccc12)N(CCCO)C(=O)Nc1ccc(F)c(Cl)c1 (single isomer, unassigned) [Compound 251, 3-(3-Chloro-4-fluorophenyl)-1-(3-hydroxypropyl)-1-(1-(1-oxo-1,2-dihydro-2,7-naphthyridin-4-yl)ethyl)urea] | 15000 nM |
| CC(c1c[nH]c(=O)c2cnccc12)N(CCCO)C(=O)Nc1ccc(F)c(Cl)c1 (single isomer, unassigned) [Compound 252, 3-(3-Chloro-4-fluorophenyl)-1-(3-hydroxypropyl)-1-(1-(1-oxo-1,2-dihydro-2,7-naphthyridin-4-yl)ethyl)urea] | 52 nM |
| CC(C)CN(C(=O)Nc1ccc(F)c(Cl)c1)C(C)c1c[nH]c(=O)c2cnccc12 (single isomer, unassigned) [Compound 253, 3-(3-Chloro-4-fluorophenyl)-1-isobutyl-1-(1-(1-oxo-1,2-dihydro-2,7-naphthyridin-4-yl)ethyl)urea] | 1400 nM |
| CC(C)CN(C(=O)Nc1ccc(F)c(Cl)c1)C(C)c1c[nH]c(=O)c2cnccc12 (single isomer, unassigned) [Compound 254, 3-(3-Chloro-4-fluorophenyl)-1-isobutyl-1-(1-(1-oxo-1,2-dihydro-2,7-naphthyridin-4-yl)ethyl)urea] | 16 nM |
| CC(c1cnc(OCc2ncn(C)n2)c2ccccc12)N(CCCO)C(=O)Nc1ccc(F)c(Cl)c1 (single isomer, unassigned) [Compound 255, 3-(3-Chloro-4-fluorophenyl)-1-(3-hydroxypropyl)-1-(1-(1-((1-methyl-1H-1,2,4-triazol-3-yl)methoxy)isoquinolin-4-yl)ethyl)urea] | 5100 nM |
| CC(c1cnc(OCc2ncn(C)n2)c2ccccc12)N(CCCO)C(=O)Nc1ccc(F)c(Cl)c1 (single isomer, unassigned) [Compound 256, 3-(3-Chloro-4-fluorophenyl)-1-(3-hydroxypropyl)-1-(1-(1-((1-methyl-1H-1,2,4-triazol-3-yl)methoxy)isoquinolin-4-yl)ethyl)urea] | 13 nM |
| CC(c1cnc(OCc2nc[nH]n2)c2ccccc12)N(CCCO)C(=O)Nc1ccc(F)c(Cl)c1 (single isomer, unassigned) [Compound 259, 1-(1-(1-((1H-1,2,4-Triazol-3-yl)methoxy)isoquinolin-4-yl)ethyl)-3-(3-chloro-4-fluorophenyl)-1-(3-hydroxypropyl)urea] | 2100 nM |
| CC(c1cnc(OCc2nc[nH]n2)c2ccccc12)N(CCCO)C(=O)Nc1ccc(F)c(Cl)c1 (single isomer, unassigned) [Compound 260, 1-(1-(1-((1H-1,2,4-Triazol-3-yl)methoxy)isoquinolin-4-yl)ethyl)-3-(3-chloro-4-fluorophenyl)-1-(3-hydroxypropyl)urea] | 19 nM |
| CC(c1cnc(NCc2cn[nH]n2)c2ccccc12)N(C)C(=O)Nc1ccc(F)c(Cl)c1 (single isomer, unassigned) [Compound 261, 1-(1-(1-(((2H-1,2,3-Triazol-4-yl)methyl)amino)isoquinolin-4-yl)ethyl)-3-(3-chloro-4-fluorophenyl)-1-methylurea] | 6100 nM |
| CC(c1cnc(NCc2cn[nH]n2)c2ccccc12)N(C)C(=O)Nc1ccc(F)c(Cl)c1 (single isomer, unassigned) [Compound 262, 1-(1-(1-(((2H-1,2,3-Triazol-4-yl)methyl)amino)isoquinolin-4-yl)ethyl)-3-(3-chloro-4-fluorophenyl)-1-methylurea] | 150 nM |
| CC(c1c[nH]c(=O)c2cc(F)ccc12)N(C)C(=O)Nc1ccc(F)c(Cl)c1 (single isomer, unassigned) [Compound 263, 3-(3-Chloro-4-fluorophenyl)-1-(1-(7-fluoro-1-oxo-1,2-dihydroisoquinolin-4-yl)ethyl)-1-methylurea] | 780 nM |
| CC(c1c[nH]c(=O)c2cc(F)ccc12)N(C)C(=O)Nc1ccc(F)c(Cl)c1 (single isomer, unassigned) [Compound 264, 3-(3-Chloro-4-fluorophenyl)-1-(1-(7-fluoro-1-oxo-1,2-dihydroisoquinolin-4-yl)ethyl)-1-methylurea] | 19 nM |
| CC(c1c[nH]c(=O)c2ccccc12)N(Cc1c[nH]nn1)C(=O)Nc1ccc(F)c(Cl)c1 (single isomer, unassigned) [Compound 266, 1-((2H-1,2,3-Triazol-4-yl)methyl)-3-(3-chloro-4-fluorophenyl)-1-(1-(1-oxo-1,2-dihydroisoquinolin-4-yl)ethyl)urea] | 12000 nM |
| CC(c1c[nH]c(=O)c2ccccc12)N(Cc1c[nH]nn1)C(=O)Nc1ccc(F)c(Cl)c1 (single isomer, unassigned) [Compound 267, 1-((2H-1,2,3-Triazol-4-yl)methyl)-3-(3-chloro-4-fluorophenyl)-1-(1-(1-oxo-1,2-dihydroisoquinolin-4-yl)ethyl)urea] | 350 nM |
| CC(c1cn(Cc2nc[nH]n2)c(=O)c2ccccc12)N(C)C(=O)Nc1ccc(F)c(Cl)c1 (single isomer, unassigned) [Compound 269, 1-(1-(2-((1H-1,2,4-Triazol-3-yl)methyl)-1-oxo-1,2-dihydroisoquinolin-4-yl)ethyl)-3-(3-chloro-4-fluorophenyl)-1-methylurea] | 560 nM |
| CC(c1cn(Cc2nc[nH]n2)c(=O)c2ccccc12)N(C)C(=O)Nc1ccc(F)c(Cl)c1 (single isomer, unassigned) [Compound 270, 1-(1-(2-((1H-1,2,4-Triazol-3-yl)methyl)-1-oxo-1,2-dihydroisoquinolin-4-yl)ethyl)-3-(3-chloro-4-fluorophenyl)-1-methylurea] | 22000 nM |

Same assay, conditions: Hepatitis B virus, HepDE19, HepDE19 assay, inhibition of formation of rcDNA; read-out: DE-19bDNA EC50

| SMILES | EC50 |
| --- | --- |
| COc1cccc2c(=O)[nH]cc(C(C)N(C)C(=O)Nc3ccc(F)c(Cl)c3)c12 (single isomer, unassigned) [Compound 265, 3-(3-chloro-4-fluorophenyl)-1-(1-(5-methoxy-1-oxo-1,2-dihydroisoquinolin-4-yl)ethyl)-1-methylurea] | 1500 nM |
| CC(c1c[nH]c(=O)c2ccccc12)N(Cc1nnc[nH]1)C(=O)Nc1ccc(F)c(Cl)c1 (single isomer, unassigned) [Compound 268, 1-((1H-1,2,4-Triazol-5-yl)methyl)-3-(3-chloro-4-fluorophenyl)-1-(1-(1-oxo-1,2-dihydroisoquinolin-4-yl)ethyl)urea] | 2600 nM |
